US6638531B1, “Antimicrobial peptides” (priority 1998, dated 2003)
Where two headings read alike, the source gives them in different places. Marks after values point to notes of the source that are not given here. Where no end group is shown, it is not given here.

What was measured:
Assay type in all cases: cell-based
Candida albicans = assay: Growth inhibition on agar with spotted peptide; parameters: key: “+” designates full growth inhibition; “+/−” designates partial inhibition; “−” signifies no inhibition; settings: C. albicans on agar, 10 μg peptide spotted
Procedure: (§1) The growth of the yeast Candida albicans, Torulopsis glabrata and meticillin-resistant Staphylococcus aureus (MRSA) was tested by growing them on agar on which 10 μg of each of the peptides according to the invention was spotted. […] “+” designates full growth inhibition, “+/−” designates partial inhibition and “−” signifies no inhibition.

Torulopsis glabrata = assay: Growth inhibition on agar with spotted peptide; parameters: key: “+” designates full growth inhibition; “+/−” designates partial inhibition; “−” signifies no inhibition; settings: T. glabrata on agar, 10 μg peptide spotted
Procedure: as §1

Streptococcus salivarius = assay: Inhibition of lactic acid production; settings: S. salivarius; 1 hour in 10 mM PPB with glucose
Procedure: (§2) All peptides according to the invention were tested for their capacity to inhibit the lactic acid production of the bacteria Streptococcus sanguis, Streptococcus mutans, Streptococcus salivarius and Lactobacillus rhamnosus. The formation of lactic acid is a measure for the metabolic activity. For this purpose cultures of bacteria cells were incubated for 1 hour in 10 mM PPB with 0.5 glucose and different concentrations of the peptides. The formation of lactic acid was monitored by means of spectrophotometry.

Streptococcus sanguis = assay: Inhibition of lactic acid production; settings: S. sanguis; 1 hour in 10 mM PPB with glucose
Procedure: as §2

Streptococcus mutans = assay: Inhibition of lactic acid production; settings: S. mutans; 1 hour in 10 mM PPB with glucose
Procedure: as §2

Lactobacillus rhamnosus = assay: Inhibition of lactic acid production; settings: L. rhamnosus; 1 hour in 10 mM PPB with glucose
Procedure: as §2

[1] = system: meticillin-resistant Staphylococcus aureus (MRSA); assay: Growth inhibition on agar with spotted peptide; parameters: key: “+” designates full growth inhibition; “+/−” designates partial inhibition; “−” signifies no inhibition; settings: 10 μg peptide spotted
Procedure: as §1

[2] = system: artificial oral biofilm of seven oral aerobic and anaerobic types of bacteria; assay: Antibacterial activity in an artificial oral biofilm; settings: for % reduction in viability counts, total Gram-negative average (s.d.) / % reduction in viability counts, total aerobic average / % reduction in viability counts, total anaerobic average: 0.5 h, pH 7; for inhibition at 35 ppm / inhibition at 200 ppm: po
Procedure: An artificial oral biofilm was made by placing hydroxyapatite discs for five days in a continuous culture system of seven oral aerobic and anaerobic types of bacteria (Streptococcus mutans, Streptococcus sanpuis, Streptococcus salivarius, Actinomyces naeslundii, Veillonella parvula, Prevotella intermedia and Fusobacterium nucleatum) The discs with the biofilm formed thereon were subsequently incubated for half an hour with different concentrations of peptide in 10 mM potassium phosphate buffer, pH 7.0. The biofilm was then sonicated from the discs, diluted in PBS and plated out on semi-selective agar plates. The total […] were counted (Streptococci+Actinomyces) on aerobic incubated blood agar plates, the total Gram-negative counts (Veilonella, Fusobacterium and Prevotella) on vancomycin-containing plates and the total counts on the anaerobic incubated blood agar.

[3] = system: bacteria collected from saliva; assay: Antimicrobial activity on oral bacteria; settings: po
Description: (§3) In order to determine whether the peptides according to the invention are also active against bacteria such as are encountered in the mouth, bacteria were collected from saliva and plaque. Saliva was shaken on a vortex mixer and centrifuged.

[4] = system: bacteria from cultured plaque; assay: Antimicrobial activity on oral bacteria; settings: po
Description: as §3

[5] = system: bacteria collected from plaque; assay: Antimicrobial activity on oral bacteria; settings: po
Description: as §3

[6] = system: bacteria from disrupted plaque; assay: Antimicrobial activity on oral bacteria; settings: po
Description: as §3

[7] = read-out: % reduction in viability counts, total Gram-negative average (s.d.)
[8] = read-out: % reduction in viability counts, total aerobic average
[9] = read-out: % reduction in viability counts, total anaerobic average
[10] = read-out: % reduction in viability counts, total Gram-negative average

Row | Molecule | growth inhibition (Candida albicans) | growth inhibition (Torulopsis glabrata) | inhibition of lactic acid production (Streptococcus salivarius) | inhibition of lactic acid production (Streptococcus sanguis) | inhibition of lactic acid production (Streptococcus mutans) | inhibition of lactic acid production (Lactobacillus rhamnosus) | growth inhibition [1] | other results
1 | OOLFOELOOSLOOY [peptide 7] | + | + | + (“+” designates full inhibition at 4-20 μg/ml peptide) | + (“+” designates full inhibition at 4-20 μg/ml peptide) | + (“+” designates full inhibition at 4-20 μg/ml peptide) | + (“+” designates full inhibition at 4-20 μg/ml peptide) |  | 
2 | KRLFKELLFSLRKY-amide (KRLFKELLFSLRKY-NH2) [peptide 13] | + | + | + (“+” designates full inhibition at 4-20 μg/ml peptide) | + (“+” designates full inhibition at 4-20 μg/ml peptide) | + (“+” designates full inhibition at 4-20 μg/ml peptide) | + (“+” designates full inhibition at 4-20 μg/ml peptide) |  | 
3 | KRLFKKLKFSLRKY-OH [peptide 9, KRLFKKLKFSLRKY] | + | + | + (“+” designates full inhibition at 4-20 μg/ml peptide) | + (“+” designates full inhibition at 4-20 μg/ml peptide) | + (“+” designates full inhibition at 4-20 μg/ml peptide) | + (“+” designates full inhibition at 4-20 μg/ml peptide) | + | % reduction in viability counts, total Gram-negative average (s.d.) ([2]; 10 μg/ml): 51.0 (32.0)* %; % reduction in viability counts, total aerobic average ([2]; 10 μg/ml): −67.4%; % reduction in viability counts, total anaerobic average ([2]; 10 μg/ml): −66.2%; % reduction in viability counts, total Gram-negative average (s.d.) ([2]; 100 μg/ml): 30.6 (104.4)* %; % reduction in viability counts, total aerobic average ([2]; 100 μg/ml): 78.7%; % reduction in viability counts, total anaerobic average ([2]; 100 μg/ml): 51.2%; % reduction in viability counts, total Gram-negative average (s.d.) ([2]; 250 μg/ml): 53.3 (70.7) %; % reduction in viability counts, total aerobic average ([2]; 250 μg/ml): 64.8%; % reduction in viability counts, total anaerobic average ([2]; 250 μg/ml): 61.2%; % reduction in viability counts, total Gram-negative average (s.d.) ([2]; 500 μg/ml): 96.9 (0.85)* %; % reduction in viability counts, total aerobic average ([2]; 500 μg/ml): 96.6%; % reduction in viability counts, total anaerobic average ([2]; 500 μg/ml): 93.2%
4 | LLLFLLKKRKKRKY [peptide 11] | + | + | + (“+” designates full inhibition at 4-20 μg/ml peptide) | + (“+” designates full inhibition at 4-20 μg/ml peptide) | + (“+” designates full inhibition at 4-20 μg/ml peptide) | + (“+” designates full inhibition at 4-20 μg/ml peptide) | + | 
5 | KRLFKELKKSLRKY [peptide 5] | + | + | + (“+” designates full inhibition at 4-20 μg/ml peptide) | + (“+” designates full inhibition at 4-20 μg/ml peptide) | + (“+” designates full inhibition at 4-20 μg/ml peptide) | + (“+” designates full inhibition at 4-20 μg/ml peptide) |  | 
6 | KRLFKELKFSLRKY-amide (KRLFKELKFSLRKY-NH2) [peptide 12] | + | + | + (“+” designates full inhibition at 4-20 μg/ml peptide) | + (“+” designates full inhibition at 4-20 μg/ml peptide) | + (“+” designates full inhibition at 4-20 μg/ml peptide) | + (“+” designates full inhibition at 4-20 μg/ml peptide) |  | 
7 | KRLFKELLFSLRKY [peptide 4] | + | + | + (“+” designates full inhibition at 4-20 μg/ml peptide) | + (“+” designates full inhibition at 4-20 μg/ml peptide) | + (“+” designates full inhibition at 4-20 μg/ml peptide) | + (“+” designates full inhibition at 4-20 μg/ml peptide) | +/− | 
8 | OOLFOELLOSLOOY [peptide 8] | + | + | + (“+” designates full inhibition at 4-20 μg/ml peptide) | + (“+” designates full inhibition at 4-20 μg/ml peptide) | + (“+” designates full inhibition at 4-20 μg/ml peptide) | + (“+” designates full inhibition at 4-20 μg/ml peptide) |  | 
9 | KRKFHEKHHSHRGY [dh-5, C-terminal part of histatin 5, reference compound] | − | − | − (“−” signifies no inhibition of lactic acid formation at >100 μg/ml peptide) | − (“−” signifies no inhibition of lactic acid formation at >100 μg/ml peptide) | − (“−” signifies no inhibition of lactic acid formation at >100 μg/ml peptide) | − (“−” signifies no inhibition of lactic acid formation at >100 μg/ml peptide) | − | 
10 | [H]/N=C(\N/C(=N/[H])NCCCCCCNC(=N)NC(=N)Nc1ccc(Cl)cc1)Nc1ccc(Cl)cc1 [Chlorhexidine] |  |  |  |  |  |  |  | inhibition at 35 ppm [2, 7]: 68.3%; inhibition at 200 ppm [2, 7]: 99.9%; inhibition at 35 ppm [2, 8]: 39%; inhibition at 200 ppm [2, 8]: 99.9%; inhibition at 35 ppm [2, 9]: 38.4%; inhibition at 200 ppm [2, 9]: 99.9%; inhibition at 50 ppm [3, 10]: > 99.9%; inhibition at 50 ppm [3, 8]: > 99.9%; inhibition at 50 ppm [3, 9]: > 99.9%; inhibition at 50 ppm [4, 10]: > 99.9%; inhibition at 50 ppm [4, 8]: > 99.9%; inhibition at 50 ppm [4, 9]: > 99.9%; inhibition at 50 ppm [5, 10]: 99.7%; inhibition at 50 ppm [5, 8]: 99.7%; inhibition at 50 ppm [5, 9]: 99.7%; inhibition at 50 ppm [6, 10]: > 99.9%; inhibition at 50 ppm [6, 8]: 99.7%; inhibition at 50 ppm [6, 9]: 99%
11 | KRLFKELLKSLRKY [peptide 6] | + | + | + (“+” designates full inhibition at 4-20 μg/ml peptide) | + (“+” designates full inhibition at 4-20 μg/ml peptide) | + (“+” designates full inhibition at 4-20 μg/ml peptide) | + (“+” designates full inhibition at 4-20 μg/ml peptide) |  | 
